Experiment [1] has as its target T1, MBP-PB1-ZZ WT (p62 residues 1–181) (Homo sapiens, UniProt Q13501).
T1 construct: The PB1-ZZ-domain of p62 (residues 1–181) WT and various mutants were expressed as MBP-fused forms; made in house; host or cells: Escherichia coli BL21(DE3)
The experiment in a line: FP binding assay, MBP-PB1-ZZ WT.
Protocol: The PB1-ZZ-domain of p62 (residues 1–181) WT and various mutants were expressed as MBP-fused forms. […] The ZZ-domain (residues 122–181) WT and various mutants were expressed as GST-fused forms.
FITC-labeled R-BiP/GRP78 peptide and all mutant peptides were dissolved to 1 mM concentration in buffers (50 mM MES pH 6.0 [or 50 mM Tris pH 8.0], 100 mM NaCl, and 1 mM DTT) and sequentially diluted with binding buffer up to 100 nM in each 40 μL reaction well. Purified GST-ZZ, MBP-PB1-ZZ WT and the respective mutants were also serially diluted in binding buffer and mixed into each reaction well at a concentration ranging from 400 nM to 3 mM. […] A nonlinear graph of p62 construct concentration-dependent polarization was calculated and drawn using GraphPad Prism 7 software.

Experiment [2] has as its system degradation of R-BiP protein and p62 in HeLa cells. Description: Cycloheximide-chase protein degradation assay. The experiment is classed as cell-based. The conditions noted are these: HA-p62 and Ub-R-BiP transfected, chloroquine 30 μM, 16 hr, 50 μg/ml cycloheximide 16 hr, immunoblotting. On the procedure: HeLa cells were cultured in DMEM (HyClone) containing 10% FBS (HyClone) and 1% penicillin/streptomycin (HyClone). Cells were transiently transfected with plasmids using Lipofectamine 2000 (Invitrogen) for mammalian expression. For protein degradation analysis, HeLa cells at 80% confluence were transiently transfected with plasmids expressing HA-p62 (either WT or mutants) and Ub-R-BiP. For the blocking of protein synthesis, cells were treated with 50 μg/ml cycloheximide (Sigma-Aldrich) for […] prior to cell harvesting. Cultured cells were pelleted by centrifugation and pellets were resuspended in phosphate-buffered saline (PBS). A volume of 150 μl was then mixed with 150 μl of 5X SDS-PAGE loading buffer (125 mM Tris-HCl pH 6.8, 4% SDS, 10% 2-mercaptoethanol and 20% glycerol). Each sample was heated for 5 min and 0.1 mg of total protein was subjected to Western blotting. Following antibodies were used in this study: rabbit monoclonal anti-p62 (Cell Signaling Technology, 8025, 1:1000), rabbit polyclonal anti-R-BiP (Abfrontier, AR02-PA0001, 1:1000), mouse monoclonal anti-β-actin (Sigma-Aldrich, A5441, 1:20,000), rat monoclonal anti-HA (Roche, 1867431, 1:20,000), mouse monoclonal anti-His-HRP (Santa Cruz, sc-8036 HRP, 1:20,000) and mouse monoclonal anti-MBP-HRP (NEB, E8038S, 1:2000).
Supplementary Figure 7. Degradation assay of R-BiP and p62 protein […]

Entries after “also recorded” stand apart in the source; their conditions may differ.

T1 sequence (Q13501 1-181): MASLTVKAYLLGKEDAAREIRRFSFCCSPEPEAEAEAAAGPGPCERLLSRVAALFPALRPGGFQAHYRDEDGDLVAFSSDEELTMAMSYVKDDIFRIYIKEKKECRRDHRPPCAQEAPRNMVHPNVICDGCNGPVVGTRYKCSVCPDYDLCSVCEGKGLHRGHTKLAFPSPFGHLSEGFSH

Consider `N=C(N)NCCC[C@H](N)C(=O)N[C@@H](CCC(=O)O)C(=O)N[C@@H](CCC(=O)O)C(=O)N[C@@H](CCC(=O)O)C(=O)N[C@@H](CC(=O)O)C(=O)N[C@@H](CCCCNC(=S)Nc1ccc2c(c1)C(=O)OC21c2ccc(O)cc2Oc2cc(O)ccc21)C(=O)O` [R-BiP peptide], for which the “Binding (dissociation constant)” value in experiment [1] (pH 4.5), in experiment [1] (pH 5.0), in experiment [1] (pH 8.5) and in experiment [1] (pH 9.0) was “not detected” throughout.

On to `CCN(CC)CCCC(C)Nc1ccnc2cc(Cl)ccc12` (centres unmarked) [chloroquine], for which the “Degradation of R-BiP protein and p62” value in experiment [2] is listed as “blocked; also recorded: not degraded”.
